The test system of assay [1] is ECHCG. As to the kind of experiment: In-water applied greenhouse weed control, transplanted paddy rice system. As to conditions: in-water application. It is filed as in vivo, Echinochloa crusgalli (L.) Beauv. On the procedure:
Weed seeds or nutlets of the desired test plant species were planted in puddled soil (mud) prepared by mixing a shredded, non-sterilized mineral soil (50.5 percent silt, 25.5 percent clay, and 24 percent sand, with a pH of about 7.6 and an organic matter content of about 2.9 percent) and water at a 1:1 volumetric ratio. The prepared mud was dispensed in 365 mL aliquots into 16-ounce (oz.) non-perforated plastic pots with a surface area of 86.59 square centimeters (cm^2) leaving a headspace of 3 centimeters (cm) in each pot. Mud was allowed to dry overnight prior to planting or transplanting. Rice seeds were planted in Sun Gro MetroMix® 306 planting mixture, which typically has a pH of 6.0 to 6.8 and an organic matter content of about 30 percent, in plastic plug trays. Seedlings at the second or third leaf stage of growth were transplanted into 840 mL of mud contained in 32-oz. non-perforated plastic pots with a surface area of 86.59 cm^2 4 days prior to herbicide application. The paddy was created by filling the headspace of the pots with 2.5 to 3 cm of water. […]
Treatment requirements for each compound or herbicidal component were calculated based upon the rates being tested, the concentration of active ingredient or acid equivalent in the formulation, an application volume of 2 mL per component per pot, and an application area of 86.59 cm^2 per pot.
For formulated compounds, a measured amount was placed in an individual 100 or 200 mL glass vial and was dissolved in a volume of 1.25% (v/v) Agri-Dex® crop oil concentrate to obtain application solutions. […]
The treated plants and control plants were placed in a greenhouse as described above and water was added as needed to maintain a paddy flood. After approximately 3 weeks the condition of the test plants as compared with that of the untreated plants was determined visually and scored on a scale of 0 to 100 percent where 0 corresponds to no injury or growth inhibition and 100 corresponds to complete kill. […]

Assay [2] relates to LEFCH. In words: Postemergence foliar-applied greenhouse weed control, direct-seeded rice system. The class given is in vivo, Leptochloa chinensis (L.) Nees. From the text:
Seeds or nutlets of the desired test plant species were planted in a soil matrix prepared by mixing a loam or sandy loam soil (e.g., 28.6 percent silt, 18.8 percent clay, and 52.6 percent sand, with a pH of about 5.8 and an organic matter content of about 1.8 percent) and calcareous grit in an 80 to 20 ratio. The soil matrix was contained in plastic pots with a volume of 1 quart and a surface area of 83.6 square centimeters (cm^2). When required to ensure good germination and healthy plants, a fungicide treatment and/or other chemical or physical treatment was applied. The plants were grown for 8-22 days in a greenhouse with an approximate 14 h photoperiod which was maintained at about 29° C. during the day and 26° C. during the night. Nutrients (Peters Excel® 15-5-15 5-Ca 2-Mg and iron chelate) were applied in the irrigation solution as needed and water was added on a regular basis. Supplemental lighting was provided with overhead metal halide 1000-Watt lamps as necessary. The plants were employed for testing when they reached the first through fourth true leaf stage.
Treatments consisted of the acid or esters of 4-amino-3-chloro-5-fluoro-6-(4-chloro-2-fluoro-3-methoxy-phenyl)pyridine-2-carboxylic acid (Compound A), each formulated as an SC (suspension concentrate), and various herbicidal components alone and in combination. Forms of compound A were applied on an acid equivalent basis.
Other herbicidal components were applied on an active ingredient basis and included diamuron formulated as an EC (emulsifiable concentrate) and oxaziclomefone (technical grade material).
Treatment requirements were calculated based upon the rates being tested, the concentration of active ingredient or acid equivalent in the formulation, and a 12 mL application volume at a rate of 187 L/ha.
For treatments comprised of formulated compounds, measured amounts of compounds were placed individually in 25 mL glass vials and diluted in a volume of 1.25% (v/v) Agri-Dex® crop oil concentrated to obtain 12× stock solutions. […] Application solutions were prepared by adding an appropriate amount of each stock solution (e.g., 1 mL) and diluted to the appropriate final concentrations with the addition of 10 mL of an aqueous mixture of 1.25% (v/v) crop oil concentrate so that the final spray solutions contained 1.25+/−0.05% (v/v) crop oil concentrate.
For treatments comprised of technical compounds, weighed amounts can be placed individually in 25 mL glass vials and dissolved in a volume of 97:3 v/v acetone/DMSO to obtain 12× stock solutions. […] Application solutions can be prepared by adding an appropriate amount of each stock solution (e.g., 1 mL) and diluted to the appropriate final concentrations with the addition of 10 mL of an aqueous mixture of 1.5% (v/v) crop oil concentrate so that the final spray solutions contain 1.25% (v/v) crop oil concentrate. When technical materials are used, the concentrated stock solutions can be added to the spray solutions so that the final acetone and DMSO concentrations of the application solutions are 16.2% and 0.5%, respectively.
For treatments comprised of formulated and technical compounds, weighed amounts of the technical materials were placed individually in 25 mL glass vials and dissolved in a volume of 97:3 v/v acetone/DMSO to obtain 12× stock solutions, and measured amounts of the formulated compounds were placed individually in 25 mL glass vials and diluted in a volume of 1.5% (v/v) crop oil concentrate or water to obtain 12× stock solutions. […] Application solutions were prepared by adding an appropriate amount of each stock solution (e.g., 1 mL) and diluted to the appropriate final concentrations with the addition of an appropriate amount of an aqueous mixture of 1.5% (v/v) crop oil concentrate so that the final spray solutions contained 1.25% (v/v) crop oil concentrate. […]

[3] abbreviates: Compound A Benzyl Ester 4.38 gae/ha alone.
Setting [4] is: Compound A Benzyl Ester 8.75 gae/ha alone.

Consider `COc1c(Cl)ccc(-c2nc(C(=O)OCc3ccccc3)c(Cl)c(N)c2F)c1F` [Compound A Benzyl Ester], for which the “Visual Weed Control (%) - 21 DAA ECHCG Obs” value came to 40% in assay [1] (setting [3]) and 50% in assay [1] (setting [4]). Moreover, the “Visual Weed Control (%) - 20 DAA LEFCH Obs” value stood at 10% in assay [2] (setting [3]), 20% in assay [2] (setting [4]) and 50% in assay [2] (Compound A Benzyl Ester 17.5 gae/ha alone).

The values are drawn from patent publication US8889591B2, “Herbicidal compositions comprising 4-amino-3-chloro-5-fluoro-6-(4-chloro-2-fluoro-3-methoxyphenyl)pyridine-2-carboxylic acid or a derivative thereof and bromobutide, daimuron, oxaziclomefone or pyributicarb” (Dow Agrosciences LLC, priority 2012, dated 2014).
